Source: patent US20060025326A1, “Method for treating carrier particles and its use” (LAB Pharma Oy, priority 2002, published 2006)

Test: Microcalorimetric study of amorphous material
Type: physicochemical
Conditions: microcalorimetric study / detected in this work

amorphous (unstable) material: some amorphous material
SMILES: CC(C)(C)NCC(O)c1ccc(O)c(CO)c1 (stereo not shown) [salbutamol]
